Assay results published in patent US20230338315A1, “METHOD OF PRODUCING PHARMACEUTICAL COCRYSTALS FOR ADDITIVE MANUFACTURING” (BOARD OF REGENTS, THE UNIVERSITY OF TEXAS SYSTEM, priority 2020, published 2023).

Legend:
[1] = Preformulation studies: solubility in solvents; type: physicochemical; conditions: for Soluble in solvent ET-Acetate: solvent ethyl acetate
Experimental: Both the drug and conformer were soluble in ethyl acetate. Ethyl acetate was used to prepare pure MA-SAC cocrystals using slow solvent evaporation. Briefly, 1:1 molar ratio of MA and SAC were mixed using a mortar and pestle. This blend was dissolved in ethyl acetate at 50° C. in a glass beaker using a magnetic stirrer-hotplate. Once the physical mixture was dissolved, the solvent was placed on an ice bath to induce nucleation of the cocrystals, the beaker was then placed in fume hood until all the solvent was evaporated. After the solvent was evaporated, the crystals were placed in an oven at 60° C. to remove any residual solvent. The resultant crystals were tested for modulated differential scanning calorimetry. A clear phase separation was observed where crystals with two different habits were developed. Samples for each phase were collected and exposed to thermal analysis.

[2] = cited from earlier work
[3] = cited from earlier work; remark: listed apart in the source
[4] = HPLC with mass spectrophotometer of hot melt extruded mefenamic acid (degradant identification); type: physicochemical
[5] = Preformulation studies with Kollidon VA64 (decomposition of mefenamic acid); type: physicochemical; conditions: presence of Kollidon VA64

Soluble in solvent ACN [1]	Soluble in solvent Et—OH [1]	Soluble in solvent Me—OH [1]	Soluble in solvent ET-Acetate [1]	degradation or decarboxylation in the extruded samples ([4]; continuous, solvent-free, polymer assisted hot melt extrusion)	degradation on hot melt extrusion processing (mass spectroscopy) ([4]; processed with saccharin by HME at 200° C., 180° C., 170° C. and 160° C., no polymer carrier)	effect of Kollidon VA64 on decomposition of mefenamic acid [5]	Structure (SMILES)	Log P [2]	pKa [3]
Yes	No	Yes	Yes	–	–	–	O=C1NS(=O)(=O)c2ccccc21 [Saccharin]	0.91	1.31
No	Yes	No	Yes	no degradation or decarboxylation	decarboxylation	can delay the decomposition	Cc1cccc(Nc2ccccc2C(=O)O)c1C [Mefenamic acid]	–	–
